# Read-outs that look alike come from different tables or passages of the source.
# How the values were obtained:
# mRCC patients = assay: Sunitinib toxicities in mRCC patients (CTCAE version 3.0), association with patient factors and genotypes; type: in vivo, human
# Method: Twelve patients in this study received a starting dose of 50 mg daily. Six patients started with 25 mg daily due to advanced age or patients' aversion to expected toxicities.
# Patient characteristics were also collected including age, gender, ethnicity, body weight and height, and Eastern Cooperative Oncology Group (ECOG) performance status. Memorial Sloan-Kettering Cancer Center (MSKCC) prognostic score was calculated for each patient with available data. All the collected data were de-identified by a third party before being used in statistical analysis. The follow-up period ended at the end of April, 2014.
# The toxicities analyzed included leucopenia, neutropenia, thrombocytopenia, diarrhea, hand-foot syndrome and early toxicity-necessitated treatment termination. […] Early toxicity-necessitated treatment termination was defined as interruption of the first or second treatment cycle consented by the patient and the physician based on recognition of intolerable or life-threatening toxicities without evidence of progressive disease and failure to resume treatment as far as the patient was followed. For patients experiencing any toxicity grade≧2, cycle interruptions were frequently required; in such cases, a resumed treatment with 25% dose reduction would be applied for safety and life quality considerations.
# Genotype associations with toxicity events or responsive tumor were first analyzed using univariate logistic regression. Genotypes generating P<0.20 were further analyzed using multivariate logistic regression including patient age, gender, baseline ECOG status and starting dose as covariates. Progression-free survival and overall survival were estimated by means of Kaplan-Meier method, while the associations of genotypes and patient characteristics with PFS and OS were analyzed using two-tailed log rank test. The effects of genotypes on the progression-free survival and overall survival were then evaluated using multivariate Cox regression model by including genotypes and patient characteristics with P<0.05 in univariate analysis. […] In all analyses, missing data were kept missing except for baseline ECOG status, which was replaced with the median value. As this was designed as a validation study of previously observed correlations rather than an exploratory evaluation, multiple testing correction was not done.
# patients = conditions: cited from earlier work; for Dose reductions: n = 96, Beuselinck et al., 2014
# [1] = ABCB1 2677 TT + AT + GT vs Other
# [2] = ABCB1 haplotype TTT/TTT vs Other
# [3] = ABCG2 421 C/A AA genotype, n = 65, Kim et al., 2013
structure (smiles),measurement,setting,value
CCN(CC)CCNC(=O)c1c(C)[nH]c(/C=C2\C(=O)Nc3ccc(F)cc32)c1C [sunitinib],Decrease of the risk of diarrhea,mRCC patients; ABCB1 1236 T allele,25 fold
same,Decrease of the risk of early toxicity-necessitated treatment termination,mRCC patients; ABCB1 1236 T allele,10 fold
same,Decrease of the risk of neutropenia,mRCC patients; ABCB1 1236 T allele,3 fold
same,Diarrhea prevalence,mRCC patients; ABCB1 1236 T/C CC,7/9
same,Neutropenia prevalence,mRCC patients; ABCB1 1236 T/C CC + CT,27/52
same,Toxicity-necessitated treatment termination prevalence,mRCC patients; ABCB1 1236 T/C CC + CT,10/53
same,Neutropenia prevalence,mRCC patients; ABCB1 1236 T/C TT,11/32
same,Toxicity-necessitated treatment termination prevalence,mRCC patients; ABCB1 1236 T/C TT,2/30
same,Diarrhea prevalence,mRCC patients; ABCB1 1236 T/C TT + CT,13/82
same,Diarrhea OR multivariate,mRCC patients; ABCB1 1236 TT + CT vs CC,0.04
same,Diarrhea OR univariate,mRCC patients; ABCB1 1236 TT + CT vs CC,0.1
same,Neutropenia OR multivariate,mRCC patients; ABCB1 1236 TT vs CC + CT,0.3
same,Neutropenia OR univariate,mRCC patients; ABCB1 1236 TT vs CC + CT,0.5
same,Toxicity-necessitated treatment termination OR multivariate,mRCC patients; ABCB1 1236 TT vs CC + CT,0.1
same,Toxicity-necessitated treatment termination OR univariate,mRCC patients; ABCB1 1236 TT vs CC + CT,0.3
same,Neutropenia prevalence,mRCC patients; ABCB1 2677 G/TA Other,20/35
same,Neutropenia prevalence,mRCC patients; ABCB1 2677 G/TA TT + AT + GT,20/53
same,Decrease of the risk of neutropenia,mRCC patients; ABCB1 2677 T allele,3 fold
same,Neutropenia OR multivariate,mRCC patients; [1],0.4
same,Neutropenia OR univariate,mRCC patients; [1],0.5
same,Decrease of the risk of neutropenia,"mRCC patients; ABCB1 3435, 1236, 2677 TTT haplotype",10 fold
same,Neutropenia prevalence,mRCC patients; ABCB1 3435 C/T CC + CT,38/75
same,Neutropenia prevalence,mRCC patients; ABCB1 3435 C/T TT,1/12
same,Decrease of the risk of diarrhea,mRCC patients; ABCB1 3435 T allele,3 fold
same,Decrease of the risk of neutropenia,mRCC patients; ABCB1 3435 T allele,10 fold
same,Diarrhea prevalence,mRCC patients; ABCB1 3435 T/C CC,11/34
same,Diarrhea prevalence,mRCC patients; ABCB1 3435 T/C TT + CT,9/60
same,Diarrhea OR multivariate,mRCC patients; ABCB1 3435 TT + CT vs CC,0.3
same,Diarrhea OR univariate,mRCC patients; ABCB1 3435 TT + CT vs CC,0.4
same,Neutropenia OR multivariate,mRCC patients; ABCB1 3435 TT vs CC + CT,0.1
same,Neutropenia OR univariate,mRCC patients; ABCB1 3435 TT vs CC + CT,0.1
same,Neutropenia prevalence,mRCC patients; ABCB1 haplotype Other,38/79
same,Neutropenia prevalence,mRCC patients; ABCB1 haplotype TTT/TTT,1/8
same,Neutropenia OR multivariate,mRCC patients; [2],0.1
same,Neutropenia OR univariate,mRCC patients; [2],0.2
same,Decrease of the risk of neutropenia,mRCC patients; ABCG2 421 A allele,3 fold
same,Neutropenia OR multivariate,mRCC patients; ABCG2 421 AA vs CC + AC,0.3
same,Neutropenia OR univariate,mRCC patients; ABCG2 421 AA vs CC + AC,0.5
same,Neutropenia prevalence,mRCC patients; ABCG2 421 C/A AA,16/44
same,Neutropenia prevalence,mRCC patients; ABCG2 421 C/A CC + AC,23/42
same,Diarrhea OR univariate,mRCC patients; Age,1.0
same,Leucopenia OR univariate,mRCC patients; Age,1.0
same,Neutropenia OR univariate,mRCC patients; Age,1.0
same,Toxicity-necessitated treatment termination OR univariate,mRCC patients; Age,1.1
same,Diarrhea prevalence,mRCC patients; Baseline ECOG 0,6/27
same,Leucopenia prevalence,mRCC patients; Baseline ECOG 0,1/25
same,Neutropenia prevalence,mRCC patients; Baseline ECOG 0,13/25
same,Toxicity-necessitated treatment termination prevalence,mRCC patients; Baseline ECOG 0,2/26
same,Diarrhea prevalence,mRCC patients; Baseline ECOG 1,9/50
same,Leucopenia prevalence,mRCC patients; Baseline ECOG 1,9/44
same,Neutropenia prevalence,mRCC patients; Baseline ECOG 1,22/46
same,Toxicity-necessitated treatment termination prevalence,mRCC patients; Baseline ECOG 1,7/44
same,Diarrhea OR univariate,mRCC patients; Baseline ECOG 1 vs 0,0.8
same,Leucopenia OR univariate,mRCC patients; Baseline ECOG 1 vs 0,6.2
same,Neutropenia OR univariate,mRCC patients; Baseline ECOG 1 vs 0,0.9
same,Toxicity-necessitated treatment termination OR univariate,mRCC patients; Baseline ECOG 1 vs 0,2.3
same,Diarrhea prevalence,mRCC patients; Baseline ECOG 2,4/12
same,Leucopenia prevalence,mRCC patients; Baseline ECOG 2,1/12
same,Neutropenia prevalence,mRCC patients; Baseline ECOG 2,5/12
same,Toxicity-necessitated treatment termination prevalence,mRCC patients; Baseline ECOG 2,2/12
same,Diarrhea OR univariate,mRCC patients; Baseline ECOG 2 vs 0,1.8
same,Leucopenia OR univariate,mRCC patients; Baseline ECOG 2 vs 0,2.2
same,Neutropenia OR univariate,mRCC patients; Baseline ECOG 2 vs 0,0.7
same,Toxicity-necessitated treatment termination OR univariate,mRCC patients; Baseline ECOG 2 vs 0,2.4
same,Diarrhea prevalence,mRCC patients; Baseline ECOG 3,1/6
same,Leucopenia prevalence,mRCC patients; Baseline ECOG 3,0/4
same,Neutropenia prevalence,mRCC patients; Baseline ECOG 3,0/5
same,Toxicity-necessitated treatment termination prevalence,mRCC patients; Baseline ECOG 3,2/5
same,Diarrhea OR univariate,mRCC patients; Baseline ECOG 3 vs 0,0.7
same,Toxicity-necessitated treatment termination OR univariate,mRCC patients; Baseline ECOG 3 vs 0,8.0
same,Diarrhea OR univariate,mRCC patients; Female vs Male,1.2
same,Leucopenia OR univariate,mRCC patients; Female vs Male,3.3
same,Neutropenia OR univariate,mRCC patients; Female vs Male,2.8
same,Toxicity-necessitated treatment termination OR univariate,mRCC patients; Gender (printed on the Male row),0.9
same,Diarrhea prevalence,mRCC patients; Gender Female,5/21
same,Leucopenia prevalence,mRCC patients; Gender Female,5/20
same,Neutropenia prevalence,mRCC patients; Gender Female,13/20
same,Toxicity-necessitated treatment termination prevalence,mRCC patients; Gender Female,3/21
same,Diarrhea prevalence,mRCC patients; Gender Male,15/74
same,Leucopenia prevalence,mRCC patients; Gender Male,6/65
same,Neutropenia prevalence,mRCC patients; Gender Male,27/68
same,Toxicity-necessitated treatment termination prevalence,mRCC patients; Gender Male,10/66
same,Diarrhea prevalence,mRCC patients; Starting dose 37.5 mg,15/78
same,Leucopenia prevalence,mRCC patients; Starting dose 37.5 mg,10/70
same,Neutropenia prevalence,mRCC patients; Starting dose 37.5 mg,32/72
same,Toxicity-necessitated treatment termination prevalence,mRCC patients; Starting dose 37.5 mg,8/71
same,Diarrhea prevalence,mRCC patients; Starting dose 50 mg,3/12
same,Leucopenia prevalence,mRCC patients; Starting dose 50 mg,1/11
same,Neutropenia prevalence,mRCC patients; Starting dose 50 mg,7/11
same,Toxicity-necessitated treatment termination prevalence,mRCC patients; Starting dose 50 mg,2/12
same,Diarrhea OR univariate,mRCC patients; Starting dose 37.5 vs <37.5 mg,0.4
same,Neutropenia OR univariate,mRCC patients; Starting dose 37.5 vs <37.5 mg,3.2
same,Toxicity-necessitated treatment termination OR univariate,mRCC patients; Starting dose 37.5 vs <37.5 mg,0.0
same,Diarrhea OR univariate,mRCC patients; Starting dose 50 vs <37.5 mg,0.5
same,Neutropenia OR univariate,mRCC patients; Starting dose 50 vs <37.5 mg,7.0
same,Toxicity-necessitated treatment termination OR univariate,mRCC patients; Starting dose 50 vs <37.5 mg,0.1
same,Diarrhea prevalence,mRCC patients; Starting dose <37.5 mg,2/5
same,Leucopenia prevalence,mRCC patients; Starting dose <37.5 mg,0/4
same,Neutropenia prevalence,mRCC patients; Starting dose <37.5 mg,1/5
same,Toxicity-necessitated treatment termination prevalence,mRCC patients; Starting dose <37.5 mg,3/4
same,Leucopenia prevalence (cases affected/total in group),"mRCC patients; all patients (n = 85), first cycle",11/85
same,"Toxicity-necessitated treatment termination before completing the first two cycles, prevalence",mRCC patients; all patients (n = 87),13/87
same,Neutropenia prevalence (cases affected/total in group),"mRCC patients; all patients (n = 88), first cycle",40/88
same,Diarrhea prevalence (cases affected/total in group),"mRCC patients; all patients (n = 95), first cycle",20/95
same,Increase of the risk of leucopenia,"mRCC patients; both, human, in vivo",8.0 fold
same,Increase of the risk of neutropenia,"mRCC patients; both, human, in vivo",2.7 fold
same,Leucopenia prevalence,"mRCC patients; both, human, in vivo",8/41
same,Severe to life-threatening toxicities,"mRCC patients; early use, initiated at 50 mg daily",frequently noted
same,Neutropenia prevalence,"mRCC patients; human, in vivo",23/41
same,Dose reductions,patients; ABCB1 1236 T/C TT genotype,Less dose
same,Dose reductions,patients; ABCB1 2677G/TA TT or TA genotypes,Less dose
same,HFS (hand-foot syndrome),"patients; ABCB1 TTT haplotype, n = 219, van Erp et al., 2009",HFS increased
same,HFS (hand-foot syndrome),patients; [3],More
same,Neutropenia,patients; [3],More
same,Thrombocytopenia,patients; [3],More
same,Any toxicity grade>2,patients; in vivo,increased with T
same,Leucopenia,patients; in vivo,increased with T

# Reference: patent US20160251725A1, “METHOD FOR PREDICTING CLINICAL TOXICITY AND OUTCOME” (AGENCY FOR SCIENCE, TECHNOLOGY AND RESEARCH, priority 2013, published 2016)
